According to patent US20070128217A1 (priority 2003, published 2007):

Columns and labels:
[1] = tested on: antibodies in sera from SARS patients (sera 1a, 1b, 2, 6, 37, 62, London, SARS-yellow, SARS-green); type: binding, human; design: Binding of serum 6 to linear peptides of protein X1 of SARS-CoV Urbani / Binding of serum 37 to linear peptides of protein X1 of SARS-CoV Urbani / Binding of serum 6 to looped/cyclic peptide (PEPSCAN-ELISA) / Binding of serum 37 to looped/cyclic peptide (PEPSCAN-ELISA) / Binding of serum 37 to looped/cyclic peptides of protein X1 of SARS-CoV Urbani / Binding of serum 6 to linear peptides of protein X2 / Binding of serum 37 to linear peptides of protein X2 / Binding of serum 37 to looped/cyclic peptides of protein X2 of SARS-CoV Urbani / Binding of serum 6 to linear peptides of protein M of SARS-CoV Urbani / Binding of serum 37 to linear peptides of protein M of SARS-CoV Urbani / Binding of serum 6 to looped/cyclic peptides of protein M of SARS-CoV Urbani / Binding of serum 37 to looped/cyclic peptides of protein M of SARS-CoV Urbani / Binding of serum 6 to linear peptides of protein X3 of SARS-CoV Urbani / Binding of serum 37 to linear peptides of protein X3 of SARS-CoV Urbani / Binding of serum 37 to looped/cyclic peptides of protein X3 of SARS-CoV Urbani / Binding of serum 6 to linear peptides of protein X4 of SARS-CoV Urbani / Binding of serum 37 to linear peptides of protein X4 of SARS-CoV Urbani / Binding of serum 37 to looped/cyclic peptides of protein X4 of SARS-CoV Urbani / Binding of serum 6 to linear peptides of protein X5 of SARS-CoV Urbani / Binding of serum 37 to linear peptides of protein X5 of SARS-CoV Urbani / Binding of serum 37 to looped/cyclic peptides of protein X5 of SARS-CoV Urbani / Binding of serum 6 to linear peptides of protein N of SARS-CoV Urbani / Binding of serum 37 to linear peptides of protein N of SARS-CoV Urbani / Binding of serum 6 to linear peptide (PEPSCAN-ELISA) / Binding of serum 1a to looped/cyclic peptides of protein N of SARS-CoV Urbani / Binding of serum 1b to looped/cyclic peptides of protein N of SARS-CoV Urbani / Binding of serum 2 to looped/cyclic peptides of protein N of SARS-CoV Urbani / Binding of serum 6 to looped/cyclic peptides of protein N of SARS-CoV Urbani / Binding of serum 37 to looped/cyclic peptides of protein N of SARS-CoV Urbani / Binding of serum 62 to looped/cyclic peptides of protein N of SARS-CoV Urbani / Binding of serum London to looped/cyclic peptides of protein N of SARS-CoV Urbani / Binding of serum SARS-green to looped/cyclic peptides of protein N of SARS-CoV Urbani: unit not given here
[2] = tested on: control sera (pooled serum of ten healthy LUMC hospital workers; commercial negative donor pooled serum from the Dutch bloodbank); type: binding, human; design: Binding of Control serum LUMC to linear peptides / Binding of Control serum Blood-bank to linear peptides / Binding of Control serum LUMC to looped peptides / Binding of Control Serum Blood-Bank to Looped peptides / Binding of Control serum LUMC to linear peptides of the protein M of SARS-CoV Urbani / Binding of Control serum Blood-bank to linear peptides of the protein M of SARS-CoV Urbani / Binding of Control serum LUMC to looped peptides of the protein M of SARS-CoV Urbani / Binding of Control Serum Blood-Bank to Looped peptides of the protein M of SARS-CoV Urbani: unit not given here
[3] = tested on: rabbit serum obtained by immunizing a rabbit with the SARS-CoV strain Frankfurt 1; type: binding; design: Binding of a rabbit serum to linear peptides / Binding of a rabbit serum to looped peptides / Rabbit serum linear peptides / Rabbit serum looped peptides / Binding of a rabbit serum to linear peptides of protein N of SARS-CoV Urbani (Rabbit serum linear peptides) / Binding of a rabbit serum to looped/cyclic peptides of protein N of SARS-CoV Urbani (Rabbit serum looped peptides): unit not given here
[4] = tested on: recombinant human anti-SARS-CoV antibody 03-018; type: binding; design: Binding of antibody 03-018 to linear peptides of the N protein of SARS-CoV Urbani / Binding of antibody 03-018 to looped/cyclic peptides of the N protein of SARS-CoV Urbani: unit not given here

| Sequence | Binding of serum 1a to linear peptides of protein N of SARS-CoV Urbani [1] | Binding of serum 1a to looped/cyclic peptides of protein N of SARS-CoV Urbani [1] | Binding of serum 1b to linear peptides of protein N of SARS-CoV Urbani [1] | Binding of serum 1b to looped/cyclic peptides of protein N of SARS-CoV Urbani [1] | Binding of serum 2 to linear peptides of protein N of SARS-CoV Urbani [1] | Binding of serum 2 to looped/cyclic peptides of protein N of SARS-CoV Urbani [1] | Binding of serum 6 to linear peptides of protein N of SARS-CoV Urbani [1] | Binding of serum 6 to looped/cyclic peptides of protein N of SARS-CoV Urbani [1] | Binding of serum 37 to linear peptides of protein N of SARS-CoV Urbani [1] | Binding of serum 37 to looped/cyclic peptides of protein N of SARS-CoV Urbani [1] | Binding of serum 62 to linear peptides of protein N of SARS-CoV Urbani [1] | Binding of serum 62 to looped/cyclic peptides of protein N of SARS-CoV Urbani [1] | Binding of serum London to linear peptides of protein N of SARS-CoV Urbani [1] | Binding of serum London to looped/cyclic peptides of protein N of SARS-CoV Urbani [1] | Binding of serum SARS-green to linear peptides of protein N of SARS-CoV Urbani [1] | Binding of serum SARS-green to looped/cyclic peptides of protein N of SARS-CoV Urbani [1] | Binding of serum SARS-yellow to linear peptides of protein N of SARS-CoV Urbani [1] | Binding of serum SARS-yellow to looped/cyclic peptides of protein N of SARS-CoV Urbani [1] | Binding of a rabbit serum to linear peptides of protein N of SARS-CoV Urbani (Rabbit serum linear peptides) [3] | Binding of a rabbit serum to looped/cyclic peptides of protein N of SARS-CoV Urbani (Rabbit serum looped peptides) [3] | also measured |
| --- | --- | --- | --- | --- | --- | --- | --- | --- | --- | --- | --- | --- | --- | --- | --- | --- | --- | --- | --- | --- | --- |
| TDSTDNNQNGGRNGA | 0.3 | 0.4 | 0.2 | 0.3 | 0.2 | 0.6 | 0.3 | 0.3 | 1.0 | 0.7 | 0.8 | 0.3 | 0.6 | 0.6 | 1.0 | 0.8 | 0.7 | 0.7 | 0.1 | 0.2 | Binding of Control Serum Blood-Bank to Looped peptides [2]: 0.7; Binding of Control serum Blood-bank to linear peptides [2]: 1.1; Binding of Control serum LUMC to linear peptides [2]: 0.8; Binding of Control serum LUMC to looped peptides [2]: 0.8; Binding of antibody 03-018 to linear peptides of the N protein of SARS-CoV Urbani [4]: 0.2; Binding of antibody 03-018 to looped/cyclic peptides of the N protein of SARS-CoV Urbani [4]: 0.2 |
| TEGALNTPKDHIGTR | 0.2 | 0.3 | 0.1 | 0.2 | 0.2 | 0.5 | 0.2 | 0.4 | 0.7 | 0.5 | 0.7 | 0.6 | 0.5 | 0.4 | 0.6 | 0.6 | 0.6 | 0.4 | 0.2 | 0.0 | Binding of Control Serum Blood-Bank to Looped peptides [2]: 0.7; Binding of Control serum Blood-bank to linear peptides [2]: 1.0; Binding of Control serum LUMC to linear peptides [2]: 0.9; Binding of Control serum LUMC to looped peptides [2]: 0.7; Binding of antibody 03-018 to linear peptides of the N protein of SARS-CoV Urbani [4]: 0.2; Binding of antibody 03-018 to looped/cyclic peptides of the N protein of SARS-CoV Urbani [4]: 0.3 |
| TEPKKDKKKKTDEAQ | 0.2 | 0.2 | 0.1 | 0.1 | 2.5 | 1.9 | 0.2 | 0.1 | 0.7 | 0.4 | 0.7 | 0.3 | 0.6 | 0.3 | 0.5 | 0.0 | 0.6 | 0.2 | 0.2 | 0.3 | Control Serum Blood-Bank Looped peptides [2]: 0.5; Control serum Blood-bank linear peptides [2]: 0.7; Control serum LUMC linear peptides [2]: 0.8; Control serum LUMC looped peptides [2]: 0.4; Binding of antibody 03-018 to linear peptides of the N protein of SARS-CoV Urbani [4]: 0.1; Binding of antibody 03-018 to looped/cyclic peptides of the N protein of SARS-CoV Urbani [4]: 0.2 |
